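A five-concentration, 48-hour dose response in 96-well plates underlies each endpoint, interpolated linearly between surrounding concentrations. GI50 is the concentration that inhibits growth by half.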 Activity calls are given as the source filed them. Rule as the data show it: active = GI50 up to about 1.1 µM and inactive = higher.
How the values were obtained:
Experiment in all cases: growth of human tumour cells (NCI), 48 h
NCI-H522 = system: NCI-H522
UACC-62 = system: UACC-62
HT-29 = system: HT-29
HCT-116 = system: HCT-116
SF-295 = system: SF-295
PC-3 = system: PC-3
MCF7 = system: MCF7
SK-OV-3 = system: SK-OV-3
SF-539 = system: SF-539
M14 = system: M14
SF-268 = system: SF-268
MDA-MB-231 = system: MDA-MB-231
SNB-75 = system: SNB-75
U-251 = system: U-251
NCI-H23 = system: NCI-H23
Malme-3M = system: Malme-3M
OVCAR-3 = system: OVCAR-3
T47D = system: T47D
SK-MEL-5 = system: SK-MEL-5
OVCAR-4 = system: OVCAR-4

Structure (SMILES)	GI50 (NCI-H522)	GI50 (UACC-62)	GI50 (HT-29)	GI50 (HCT-116)	GI50 (SF-295)	GI50 (PC-3)	GI50 (MCF7)	GI50 (SK-OV-3)	GI50 (SF-539)	GI50 (M14)	GI50 (SF-268)	GI50 (MDA-MB-231)	GI50 (SNB-75)	GI50 (U-251)	GI50 (NCI-H23)	GI50 (Malme-3M)	GI50 (OVCAR-3)	GI50 (T47D)	GI50 (SK-MEL-5)	GI50 (OVCAR-4)
CCOC(=O)C(=O)C(CCC(=O)c1ccc2ccccc2c1O)C(=O)OCC (centres undefined)	> 100 µM (inactive)	> 100 µM (inactive)	> 100 µM (inactive)	> 100 µM (inactive)	> 100 µM (inactive)	> 100 µM (inactive)	> 100 µM (inactive)	> 100 µM (inactive)	> 100 µM (inactive)	> 100 µM (inactive)	> 100 µM (inactive)	> 100 µM (inactive)	> 100 µM (inactive)	> 100 µM (inactive)	> 100 µM (inactive)	> 100 µM (inactive)	> 100 µM (inactive)	> 100 µM (inactive)	> 100 µM (inactive)	> 100 µM (inactive)
O=C1CC[N+]2=Cc3ccccc3O[B-]2(c2ccccc2)O1 (centres undefined)	> 100 µM (inactive)	> 100 µM (inactive)	> 100 µM (inactive)	> 100 µM (inactive)	> 100 µM (inactive)	> 100 µM (inactive)	> 100 µM (inactive)	> 100 µM (inactive)	> 100 µM (inactive)	> 100 µM (inactive)	> 100 µM (inactive)	> 100 µM (inactive)	67.1 µM (inactive)	> 100 µM (inactive)	> 100 µM (inactive)	> 100 µM (inactive)	> 100 µM (inactive)	> 100 µM (inactive)	97.7 µM (inactive)	> 100 µM (inactive)
CNc1nc2c(C)ccc3nc(N(C)C)[nH]c3c-2n1	54 µM (inactive)	68.7 µM (inactive)	30.7 µM (inactive)	38.9 µM (inactive)	55.5 µM (inactive)	46.9 µM (inactive)	31.5 µM (inactive)	21.1 µM (inactive)	24.8 µM (inactive)	25.4 µM (inactive)	32.4 µM (inactive)	43.6 µM (inactive)	41.8 µM (inactive)	58.3 µM (inactive)	32.9 µM (inactive)	31.1 µM (inactive)	82.2 µM (inactive)	46.6 µM (inactive)	20.7 µM (inactive)	19.5 µM (inactive)
C/C(=N\NC(=S)NC(C)(C)C)c1nc2cccnc2[nH]1	4.53 µM (inactive)	2.57 µM (inactive)	1.71 µM (inactive)	3.59 µM (inactive)	2.8 µM (inactive)	7.93 µM (inactive)	0.309 µM (active)	3.08 µM (inactive)	3.21 µM (inactive)	3.33 µM (inactive)	6.53 µM (inactive)	3.55 µM (inactive)	16.3 µM (inactive)	1.15 µM (inactive)	8.26 µM (inactive)	4.49 µM (inactive)	0.384 µM (active)	0.427 µM (active)	2.21 µM (inactive)	0.634 µM (active)
O=c1oc2c(ccc3ccccc32)cc1C1=CSC2=NCCN12	30.3 µM (inactive)	> 100 µM (inactive)	45.3 µM (inactive)	32.4 µM (inactive)	33 µM (inactive)	71.4 µM (inactive)	21.8 µM (inactive)	67.3 µM (inactive)	69.7 µM (inactive)	50.2 µM (inactive)	57.9 µM (inactive)	38.3 µM (inactive)	> 100 µM (inactive)	59.8 µM (inactive)	53.8 µM (inactive)	58.6 µM (inactive)	31.6 µM (inactive)	30.5 µM (inactive)	46.3 µM (inactive)	44.5 µM (inactive)
CSc1nc2c(c(N(C)C)n1)C(O)n1c(nc3ccccc31)S2 (centres undefined)	12 µM (inactive)	> 85.9 µM (inactive)	> 100 µM (inactive)	23 µM (inactive)	38.1 µM (inactive)	> 100 µM (inactive)	47 µM (inactive)	16.5 µM (inactive)	15.2 µM (inactive)	> 65.3 µM (inactive)	32.7 µM (inactive)	28 µM (inactive)	17.1 µM (inactive)	> 22.7 µM (inactive)	31.3 µM (inactive)	28.6 µM (inactive)	29.2 µM (inactive)	38.1 µM (inactive)	56.2 µM (inactive)	4.95 µM (inactive)
C=CCc1c(Cl)nc(Cl)nc1Cl	< 0.0191 µM (active)	0.333 µM (active)	0.266 µM (active)	0.352 µM (active)	1.93 µM (inactive)	0.733 µM (active)	0.185 µM (active)	1.32 µM (inactive)	1.04 µM (active)	< 0.0156 µM (active)	1.66 µM (inactive)	0.561 µM (active)	1.08 µM (active)	0.578 µM (active)	0.422 µM (active)	0.159 µM (active)	0.161 µM (active)	0.313 µM (active)	0.0818 µM (active)	0.243 µM (active)
CCOC(=O)P(=O)(O)c1ccc(N(C)Cc2ccccc2)cc1	> 100 µM (inactive)	> 100 µM (inactive)	> 100 µM (inactive)	> 100 µM (inactive)	> 100 µM (inactive)	> 100 µM (inactive)	> 100 µM (inactive)	> 100 µM (inactive)	> 100 µM (inactive)	> 100 µM (inactive)	> 100 µM (inactive)	> 100 µM (inactive)	> 100 µM (inactive)	> 100 µM (inactive)	> 100 µM (inactive)	> 100 µM (inactive)	> 100 µM (inactive)	> 100 µM (inactive)	> 100 µM (inactive)	> 100 µM (inactive)
N#Cc1c(O)c2ccccc2[nH]c1=O	> 100 µM (inactive)	> 100 µM (inactive)	> 100 µM (inactive)	> 100 µM (inactive)	> 100 µM (inactive)	> 100 µM (inactive)	> 100 µM (inactive)	> 100 µM (inactive)	> 100 µM (inactive)	> 100 µM (inactive)		> 100 µM (inactive)	> 100 µM (inactive)	> 100 µM (inactive)	> 100 µM (inactive)	> 100 µM (inactive)	> 100 µM (inactive)	> 100 µM (inactive)	> 100 µM (inactive)	> 100 µM (inactive)
COC(=O)c1ccc2c(c1)CC1(C2)Cc2cc3c(c(C(=O)OC)c2C1)CCCC3 (centres undefined)	> 100 µM (inactive)	37.1 µM (inactive)	55.7 µM (inactive)	44.6 µM (inactive)	50 µM (inactive)	54.1 µM (inactive)	68.5 µM (inactive)	41.7 µM (inactive)	> 100 µM (inactive)		> 100 µM (inactive)	64.3 µM (inactive)	77.6 µM (inactive)	61.7 µM (inactive)	65.5 µM (inactive)	> 100 µM (inactive)	18.3 µM (inactive)	47.3 µM (inactive)	21.2 µM (inactive)	50.5 µM (inactive)
CCCCCCc1cc2cc(C(=O)NCc3ccccc3)c(=N)oc2cc1O	> 100 µM (inactive)	> 100 µM (inactive)	> 100 µM (inactive)	> 100 µM (inactive)		> 100 µM (inactive)	> 100 µM (inactive)	> 100 µM (inactive)	> 100 µM (inactive)	> 100 µM (inactive)	> 100 µM (inactive)	> 100 µM (inactive)	> 100 µM (inactive)	> 100 µM (inactive)	> 100 µM (inactive)	> 100 µM (inactive)	> 100 µM (inactive)	> 100 µM (inactive)	> 100 µM (inactive)	> 100 µM (inactive)
Nc1nc(Cl)cc(NCC2(CO)CCC2)n1	> 100 µM (inactive)	99.3 µM (inactive)	> 100 µM (inactive)	> 100 µM (inactive)	> 100 µM (inactive)	> 100 µM (inactive)	> 100 µM (inactive)	> 100 µM (inactive)	> 100 µM (inactive)		> 100 µM (inactive)	> 100 µM (inactive)	> 100 µM (inactive)	> 100 µM (inactive)	> 100 µM (inactive)	> 100 µM (inactive)	> 100 µM (inactive)	29.7 µM (inactive)	> 100 µM (inactive)	> 100 µM (inactive)
O=c1[nH]c(=O)n(C2CC(O)C(CO)O2)c2nc3cc4ccccc4cc3nc12 (centres undefined)	> 100 µM (inactive)	> 100 µM (inactive)		> 100 µM (inactive)	75.2 µM (inactive)	> 100 µM (inactive)	> 100 µM (inactive)	> 100 µM (inactive)	> 100 µM (inactive)	> 100 µM (inactive)	73.1 µM (inactive)	52.7 µM (inactive)	74.8 µM (inactive)	59.2 µM (inactive)	> 100 µM (inactive)	> 100 µM (inactive)	> 100 µM (inactive)	> 100 µM (inactive)	> 100 µM (inactive)	> 100 µM (inactive)
c1ccc(CNc2nncc3[nH]cnc23)cc1	> 100 µM (inactive)	> 100 µM (inactive)	> 100 µM (inactive)	> 100 µM (inactive)	> 100 µM (inactive)	> 100 µM (inactive)	> 100 µM (inactive)	> 100 µM (inactive)	> 100 µM (inactive)	> 100 µM (inactive)		> 100 µM (inactive)	> 100 µM (inactive)	> 100 µM (inactive)	> 100 µM (inactive)	59.6 µM (inactive)	> 100 µM (inactive)	> 100 µM (inactive)	> 100 µM (inactive)	> 100 µM (inactive)

From ChEMBL document CHEMBL1201862, “PubChem BioAssay data set” (2004)
